Assay [1] relates to mast cells. Kind of assay: Membrane-stabilizing action (mast cell degranulation). Format: cell-based. Particulars: Rattus norvegicus, 10^-4 M. Here is the method: Membrane-stabilizing action
This test was conducted according to the method of Schwartz, J. et al. [Int. Arch. Allergy 30, 67 (1966)].
That is, 10 ml each of Hnak's balanced salt solution containing 10 units/ml of heparin was administered to rats intraperitoneally. After gentle massage of the abdomen for 2 minutes, peritoneal exudate cells (PEC) were obtained and washed 3 times with PBS containing 0.1% of bovine serum albumin (BSA). Mast cells in the suspension of PEC were stained with 0.2% of Neutral Red, and PEC were adjusted to a concentration of 4×10^5 mast cells/ml using PBS containing 0.1% of BSA. The cell suspension (50 μl) was incubated with 50 μl of a test compound solution at 37° C. for 5 minutes, then challenged with anti-egg albumin rat serum (50 μl, 1:40) and egg albumin (50 μl, 10 mg/ml) and further incubation was performed for 10 minutes. The reaction mixture was ice-cooled to terminate the reaction. Thereafter the number of mast cells undergoing degranulation was assessed under microscope observation to determine the menbrane-stabilizing action of the test compound.

Assay [2] has as its target T1, 5-lipoxygenase (Rattus norvegicus, UniProt P12527).
T1 construct: The resulting supernatant liquid was used as an enzymatic solution; endogenous in cells; host or cells: rat basophil leukemia-1 (RBL-1) cells, supernatant after sonication
T1 sequence (P12527 1-673): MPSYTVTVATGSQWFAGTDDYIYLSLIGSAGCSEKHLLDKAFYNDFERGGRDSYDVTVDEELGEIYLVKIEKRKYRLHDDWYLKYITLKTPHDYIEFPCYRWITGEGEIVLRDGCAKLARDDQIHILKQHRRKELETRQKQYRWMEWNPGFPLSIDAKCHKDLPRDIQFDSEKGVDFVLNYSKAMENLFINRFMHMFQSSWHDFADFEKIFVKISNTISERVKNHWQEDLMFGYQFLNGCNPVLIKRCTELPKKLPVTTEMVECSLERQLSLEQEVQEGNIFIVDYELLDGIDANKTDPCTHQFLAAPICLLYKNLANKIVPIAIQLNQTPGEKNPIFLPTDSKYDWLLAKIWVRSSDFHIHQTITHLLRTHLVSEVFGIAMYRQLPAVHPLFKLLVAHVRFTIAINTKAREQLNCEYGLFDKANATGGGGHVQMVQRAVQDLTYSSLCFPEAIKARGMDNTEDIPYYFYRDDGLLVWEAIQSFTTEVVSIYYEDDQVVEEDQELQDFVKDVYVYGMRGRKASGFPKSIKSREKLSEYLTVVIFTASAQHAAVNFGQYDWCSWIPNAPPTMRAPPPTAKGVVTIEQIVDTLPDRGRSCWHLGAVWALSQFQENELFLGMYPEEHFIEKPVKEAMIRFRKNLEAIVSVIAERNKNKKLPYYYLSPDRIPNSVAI
The experiment in a line: 5-Lipoxygenase activity-inhibiting action (5-HETE biosynthesis, rat basophil leukemia-1 cell supernatant). Format: biochemical. Here is the method: 5-Lipoxygenase activity-inhibiting action
Rat basophil leukemia-1 cells were suspended in a 50 mM phosphate buffer solution (PBS) of pH 7.0 containing 1 mM of EDTA, 0.1% of gelatin and 14 μM of indometacin so that the resulting suspension contained 5×10^7 cels cells/ml ml. The suspension was subjected to an ultrasonic treatment and then to centrifugation (10,000G, 20 minutes). The resulting supernatant liquid was used as an enzymatic solution. 10 μl of a test compound solution was added to 460 μl of the enzymatic solution and a reaction was conducted at 37° C. for 5 minutes. Thereto were added 7.4 KBq of ^14 C-arachidonic acid and a 100 mM aqueous calcium chloride solution, and a reaction was conducted at 37° C. for 10 minutes. The reaction mixture was ice-cooled and then adjusted to pH 3 with 1N hydrochloric acid to terminate the reaction. Thereafter, extraction with 5 ml of chloroform was conducted. The extract was subjected to evaporation to dryness in the presence of nitrogen gas, and the residue was dissolved in a 2:1 mixture of chloroform and methanol. The solution was developed by thin-layer chromatography using Kieselgel 60 F254, according to the method of Jakschik, B. A. et al. [Biachen. Biophys. Res. Commun. 95, 103 (1980)]. The radioactivity of 5-hydroxyeicosatetraenoic acid (5-HETE) was measured by a liquid scintillation counter (LSC-900 manufactured by Aroka) to determine the ratio of 5-HETE biosynthesis inhibition of test compound-added group to control group, after which there was determined a concentration of test compound at which the activity of 5-lipoxygenase was inhibited by 50%, i.e. an IC50. The test compound was used in a diluted form by dissolving it in dimethyl sulfoxide. The results are shown in Tables 1, 2 and 3 which appear later.

Assay [3] concerns tracheal chain. The experiment in a line: Histamine antagonism (isolated guinea pig tracheal chain contraction). As to conditions: Cavia porcellus, 5 min; 10^-5 M test compound; 3×10^-5 M histamine hydrochloride. Format: cell-based. How it is done: Guinea pigs were sacrificed and the tracheae were isolated. Each trachea was cut open at the center of the tracheal cartilage, and was cut in the vertical direction to separate into individual segments. Three of these segments were combined to form a tracheal chain. The tracheal chain was suspended in a Magnus tube filled with a Tyrode's solution (NaCl: 137 mX, KCl: 2.7 mM, CaCl2 : […], MgCl2 : 1.1 mM, NaHPO4 : 0.4 mM, NaHCO3 : 12.0 mM, glucose: 5.6 mM) kept at 37° C., while applying a load of 0.5 g. A mixed gas consisting of 95% of O2 and 5% of CO2 was constantly passed through the tube, and the contraction of the smooth muscle was recorded on a polygraph (U-228 manufactured by NIPPON DENKI KAGAKU) via an isotonic transducer (TD-112S manufactured by Nihon Koden). Each test compound was incubated for 5 minutes before the addition of 3×10^-5 M of histamine hydrochloride (a product of Wako Pure Chemical Industries, Ltd.).

For assay [4], the target named is T2, TXA2 synthetase (Homo sapiens, UniProt P24557).
T2 construct: human platelet microsome fraction; purchased Funakoshi: Eldan Tech; host or cells: human platelet microsome fraction (thromboxane synthetase kit)
T2 sequence (P24557 1-533): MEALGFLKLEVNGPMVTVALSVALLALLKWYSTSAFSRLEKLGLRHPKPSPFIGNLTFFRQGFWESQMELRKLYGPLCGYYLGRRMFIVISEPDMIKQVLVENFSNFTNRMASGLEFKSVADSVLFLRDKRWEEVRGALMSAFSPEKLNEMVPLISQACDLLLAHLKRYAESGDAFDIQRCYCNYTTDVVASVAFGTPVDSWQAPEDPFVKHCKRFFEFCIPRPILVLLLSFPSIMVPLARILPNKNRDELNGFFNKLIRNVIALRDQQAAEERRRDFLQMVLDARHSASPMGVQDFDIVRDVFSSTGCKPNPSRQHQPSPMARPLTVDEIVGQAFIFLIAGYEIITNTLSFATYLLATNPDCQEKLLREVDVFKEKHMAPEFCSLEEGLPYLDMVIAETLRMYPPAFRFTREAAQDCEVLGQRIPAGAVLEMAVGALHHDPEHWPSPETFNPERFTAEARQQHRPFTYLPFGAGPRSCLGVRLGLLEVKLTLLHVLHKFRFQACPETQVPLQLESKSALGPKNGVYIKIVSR
The experiment in a line: TX synthesis-inhibiting action (thromboxane synthetase kit, human platelet microsome). Format: biochemical. As to conditions: 3 × 10^-6 M. How it is done:
TX synthesis-inhibiting action
TXA2 synthetase activity was measured by the use of a thromboxane synthetase kit (Funakoshi: Eldan Tech). That is, 0.97 mg of a human platelet microsome fraction was suspended in 1 m of a 50 mM tris-0.1M sodium chloride buffer solution of pH 7.5, and the resulting suspension was ice-cooled. […] of the suspension was placed in a sample tube and a test compound was added thereto. The resulting mixture was preincubated at 25° C. exactly for 3 minutes. Thereto was added 2μ of an ice-cooled acetone solution containing 0.05 mg/m of PGH2, and the resulting mixture was incubated at 25° C. exactly for 3 minutes. 10μ of a 0.25 mM FeCl2 solution was added to terminate the reaction. The resulting mixture was allowed to stand at room temperature for 15 minutes and then subjected to centrifugation at 1,000 G at 4° C. for 10 minutes. The TXB2 content contained in the supernatant was measured by RIA (thromboxanes B2 [3H] RIA Kit: NEN Research Products). The test compound was dissolved in DMSO or distilled water before use. The test was performed in triplicate or quadruplicate assays.

Consider `CC(=O)Oc1cccc2cc(C(=O)NCCN3CCN(CCSCc4cccs4)CC3)c(O)cc12` [Example 4, N-[2-[4-(thienylmethylthio)ethyl-1-piperazinyl]ethyl]-5-acetoxy-3-hydroxy-2-naphthamide], for which the inhibition at 100 µM in assay [1] amounted to 53.7%. Also, in assay [2] (Table 1), it took 320 nM to reach half-maximal inhibition (IC50).
In assay [1], `CC(=O)Oc1cccc2cc(C(=O)NCCN3CCC(OC(c4ccccc4)c4ccccc4)CC3)c(O)cc12` [Example 5, N-[2-[4-(benzhydryloxy)piperidino]ethyl]-5-acetoxy-3-hydroxy-2-naphthamide] gave an inhibition at 100 µM of 96.5%. Also, the IC50 in assay [2] (Table 1) was 410 nM. The compound further came in with an inhibition at 10 µM in assay [3] of 65.4%.
`CC(=O)Oc1cccc2cc(C(=O)NCCN3CCN(CCSC(c4ccncc4)c4ccc(Cl)cc4)CC3)c(O)cc12` (stereo not drawn) [Example 15]: the IC50 in assay [2] (Table 3) was found to be 300 nM. Also, in assay [4], the inhibition at 3 µM worked out at 73.2%.
For the compound `O=C(NCCN1CCN(CCSC(c2ccc(Cl)cc2)c2ccc(Cl)cc2)CC1)c1cc2cccc(O)c2cc1O` [Example 21], in assay [1], at 100 µM the inhibition was 100%. The compound further came in with an IC50 in assay [2] (Table 1) of 250 nM.
`O=C(NCCN1CCC(OC(c2ccccc2)c2ccccc2)CC1)c1cc2cccc(O)c2cc1O` [Example 34, N-[2-[4-(benzhydryloxy)piperidino]ethyl]-3,5-dihydroxy-2-naphthamide] returned an inhibition at 100 µM in assay [1] of 41%. In assay [2] (Table 1), the midpoint of inhibition, the IC50, lay at 150 nM. In assay [3], this compound displayed an inhibition at 10 µM of 64.7%.
Take `O=C(NCCN1CCC(OC(c2ccccc2)c2ccccc2)CC1)c1cc2cc(O)ccc2cc1O` [Example 35, N-[2-[4-(benzhydryloxy)piperidino]ethyl]-3,7-dihydroxy-2-naphthamide]: the IC50 in assay [2] (Table 2) stood at 270 nM. In assay [3], this compound returned an inhibition at 10 µM of 67.9%.
`O=C(NCCN1CCC(OC(c2ccccc2)c2ccccc2)CC1)c1cc2cccc(OCc3cccnc3)c2cc1O` [Example 42, N-[2-[4-(benzhydryloxy)piperidino]ethyl]-3-hydroxy-5-(3-pyridylmethoxyl)-2-naphthamide] registered an inhibition at 100 µM in assay [1] of 60.1%. Besides, in assay [2] (Table 1), the IC50 was determined as 5100 nM.
`O=C(NCCN1CCC(OC(c2ccccc2)c2ccccc2)CC1)c1cc2cccc(OCc3ccncc3)c2cc1O` [Example 43, N-[2-[4-(benzhydryloxy)piperidino]ethyl]-3-hydroxy-5-(4-pyridylmethoxyl)-2-naphthamide] displayed an inhibition at 100 µM in assay [1] of 80.7%. Also, the IC50 in assay [2] (Table 2) was found to be 110 nM. Testing at 10 µM in assay [3] gave an inhibition of 48.2%. For the same compound, the inhibition at 3 µM in assay [4] was found to be 75.6%.
In assay [4], `O=C(NCCCCCSCc1cccs1)c1cc2cccc(O)c2cc1O` [Example 44, N-[5-(2-thienylmethylthio)pentyl]-3,5-dihydroxy-2-naphthamide] had an inhibition at 3 µM of 61.8%.

The values are drawn from US5324728A, “Naphthoic acid derivative” (Fujirebio Inc., priority 1990, dated 1994).
